Reference: patent US11291659B2, “P38 kinase inhibitors reduce DUX4 and downstream gene expression for the treatment of FSHD” (Fulcrum Therapeutics, Inc., priority 2017, dated 2022)

Test system: DUX4-fl mRNA
Test: DUX4-fl mRNA by nested qPCR in FSHD myotubes
Format: cell-based, Human
Conditions: 10, 100, and 1000 nM vs DMSO
Procedure: In a 6 well plate, 450 μL Buffer RLT Plus was added. Lysate was homogenized by transfer the lysate to a gDNA Eliminator spin column placed in a 2 mL collection tube (supplied), centrifuged for 30 s at ≥8000×g (≥10,000 rpm) and discarded column while saving the flow-through. Then 250 μL of Ethanol (35% final) was added to the flow-through, and mixed well by pipetting, not centrifuged. Then samples were transferred, including any precipitate that may have formed, to an RNeasy MinElute spin column placed in a 2 mL collection tube (supplied). Then centrifuged for 15 s at […]. Flow-through was discarded or collected for Protein precipitation. 700 μL Buffer RW1 to the RNeasy MinElute spin column was added then centrifuge for 15 s at ≥8000×g. and discard the flow-through. DNAse treatment was performed by gently mixing 10 μL DNAseI with 70 μL of Buffer RDD and added directly to the column, incubated at room temperature for 20 min. Then, 700 μL Buffer RW1 (per manufactures specification) to the RNeasy MinElute spin column, centrifuged for 15 s at ≥8000×g. and the flow-through discarded. 500 μL Buffer RPE was added to the RNeasy MinElute spin column centrifuged for 15 s at ≥8000×g and discarded the flow-through. […]
cDNA preparation. […] 10 seconds then read plate on QuantStudio7 as per manufactures instruction (Thermo). […]

Cn1c(=O)c(Oc2ccc(F)cc2F)cc2cnc(NC(CCO)CCO)nc21 [Pamapimod, 6-(2,4-difluorophenoxy)-2-((1,5-dihydroxypentan-3-yl)amino)-8-methylpyrido[2,3-d]pyrimidin-7(8H)-one]
DUX4-fl mRNA levels normalized to POLR2A mRNA: dose-dependently reduced
